# Patent publication US9260439B2, “Dihydropyrrolopyrimidine derivatives” (PFIZER INC., priority 2014, dated 2016)
# Target: truncated PI3Kα (p110α/iSH2 p85α) (Homo sapiens (Human), UniProt P42336)
# Test: PI3KA_Act fluorescence polarization kinase assay (Ki)
# Type: biochemical
# Settings: 1 mM ATP
# In short: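 Ki values result from fitting fluorescence polarization signals to the Morrison equation for tight-binding competitive inhibitors. The detector was GST-Grp1 PH domain with TAMRA-PIP3, read after a 30 min room-temperature reaction of 0.5 nM truncated PI3Kα and 30 μM PIP2 at pH 7.4 in HEPES/NaCl/MgCl2/DTT/CHAPS buffer. Compounds were tested as 12-point 3-fold dilutions from 3 μM.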
# Chain of truncated PI3Kα (p110α/iSH2 p85α) (P42336 whole entry, the tested form may be a part): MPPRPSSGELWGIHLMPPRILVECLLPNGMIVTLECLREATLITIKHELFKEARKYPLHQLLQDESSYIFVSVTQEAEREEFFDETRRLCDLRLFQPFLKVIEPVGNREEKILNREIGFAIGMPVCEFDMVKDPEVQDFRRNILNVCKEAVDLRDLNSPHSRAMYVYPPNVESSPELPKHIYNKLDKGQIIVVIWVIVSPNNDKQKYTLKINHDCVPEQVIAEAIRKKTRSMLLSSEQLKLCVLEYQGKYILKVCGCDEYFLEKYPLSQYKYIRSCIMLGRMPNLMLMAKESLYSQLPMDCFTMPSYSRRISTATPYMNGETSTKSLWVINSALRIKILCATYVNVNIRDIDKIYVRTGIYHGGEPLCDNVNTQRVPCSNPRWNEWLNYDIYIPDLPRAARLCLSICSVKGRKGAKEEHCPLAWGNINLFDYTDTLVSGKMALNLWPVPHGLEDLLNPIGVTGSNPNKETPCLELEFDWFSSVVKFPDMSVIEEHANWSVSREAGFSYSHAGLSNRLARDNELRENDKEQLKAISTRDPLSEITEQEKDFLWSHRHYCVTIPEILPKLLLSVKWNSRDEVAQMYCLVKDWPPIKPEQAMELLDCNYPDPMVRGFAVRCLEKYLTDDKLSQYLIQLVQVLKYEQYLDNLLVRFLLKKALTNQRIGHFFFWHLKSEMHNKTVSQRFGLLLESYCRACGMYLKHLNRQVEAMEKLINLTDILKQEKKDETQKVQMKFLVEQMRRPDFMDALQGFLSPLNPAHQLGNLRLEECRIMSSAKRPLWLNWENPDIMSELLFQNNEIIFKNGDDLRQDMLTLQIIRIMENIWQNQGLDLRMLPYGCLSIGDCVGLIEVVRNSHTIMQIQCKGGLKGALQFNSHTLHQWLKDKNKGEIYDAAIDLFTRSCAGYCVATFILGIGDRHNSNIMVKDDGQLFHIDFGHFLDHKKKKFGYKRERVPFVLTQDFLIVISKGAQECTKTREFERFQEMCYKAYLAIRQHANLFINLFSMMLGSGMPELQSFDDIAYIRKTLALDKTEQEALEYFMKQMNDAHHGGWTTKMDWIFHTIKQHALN
row,SMILES,PI3KA_Act Ki [pM]
1,"CC(C)[C@@H](N)C(=O)N1CC[C@](C)(N2CCc3c(-c4cnc(N)nc4)nc(N4CCOCC4)nc32)C1.Cl [Example 310, (2R)-2-amino-1-{(3S)-3-[4-(2-aminopyrimidin-5-yl)-2-(morpholin-4-yl)-5,6-dihydro-7H-pyrrolo[2,3-d]pyrimidin-7-yl]-3-methylpyrrolidin-1-yl}-3-methylbutan-1-one hydrochloride]",22
2,"C[C@]1(N2CCc3c(-c4cnc(N)nc4)nc(N4CCOCC4)nc32)CCN(C(=O)[C@@](C)(N)C(F)(F)F)C1.Cl [Example 311, (2R)-2-amino-1-{(3S)-3-[4-(2-aminopyrimidin-5-yl)-2-(morpholin-4-yl)-5,6-dihydro-7H-pyrrolo[2,3-d]pyrimidin-7-yl]-3-methylpyrrolidin-1-yl}-3,3,3-trifluoro-2-methylpropan-1-one hydrochloride]",54
3,"C[C@]1(N2CCc3c(-c4cnc(N)nc4)nc(N4CCOCC4)nc32)CCN(C(=O)[C@](C)(N)C(F)(F)F)C1.Cl [Example 312, (2S)-2-amino-1-{(3S)-3-[4-(2-aminopyrimidin-5-yl)-2-(morpholin-4-yl)-5,6-dihydro-7H-pyrrolo[2,3-d]pyrimidin-7-yl]-3-methylpyrrolidin-1-yl}-3,3,3-trifluoro-2-methylpropan-1-one hydrochloride]",37
4,"C[C@]1(N2CCc3c(-c4cnc(N)nc4)nc(N4CCOCC4)nc32)CCN(C(=O)[C@@H](N)C(F)(F)F)C1.Cl [Example 313, (2R)-2-amino-1-{(3S)-3-[4-(2-aminopyrimidin-5-yl)-2-(morpholin-4-yl)-5,6-dihydro-7H-pyrrolo[2,3-d]pyrimidin-7-yl]-3-methylpyrrolidin-1-yl}-3,3,3-trifluoropropan-1-one hydrochloride]",128
5,"C[C@]1(N2CCc3c(-c4cnc(N)nc4)nc(N4CCOCC4)nc32)CCN(C(=O)[C@H](N)C(F)(F)F)C1.Cl [Example 314, (2S)-2-amino-1-{(3S)-3-[4-(2-aminopyrimidin-5-yl)-2-(morpholin-4-yl)-5,6-dihydro-7H-pyrrolo[2,3-d]pyrimidin-7-yl]-3-methylpyrrolidin-1-yl}-3,3,3-trifluoropropan-1-one hydrochloride]",<18
6,"CC(C(N)=O)C(=O)N1CC[C@](C)(N2CCc3c(-c4cnc(N)nc4)nc(N4CCOCC4)nc32)C1 (stereo partly drawn) [Example 315, 3-{(3S)-3-[4-(2-aminopyrimidin-5-yl)-2-(morpholin-4-yl)-5,6-dihydro-7H-pyrrolo[2,3-d]pyrimidin-7-yl]-3-methylpyrrolidin-1-yl}-2-methyl-3-oxopropanamide]",<18
7,"CC(C)(C(N)=O)C(=O)N1CC[C@](C)(N2CCc3c(-c4cnc(N)nc4)nc(N4CCOCC4)nc32)C1 [Example 318, 3-{(3S)-3-[4-(2-aminopyrimidin-5-yl)-2-(morpholin-4-yl)-5,6-dihydro-7H-pyrrolo[2,3-d]pyrimidin-7-yl]-3-methylpyrrolidin-1-yl}-2,2-dimethyl-3-oxopropanamide]",76
8,"CC(C)(C(=O)O)C(=O)N1CC[C@](C)(N2CCc3c(-c4cnc(N)nc4)nc(N4CCOCC4)nc32)C1 [Example 319, 3-{(3S)-3-[4-(2-aminopyrimidin-5-yl)-2-(morpholin-4-yl)-5,6-dihydro-7H-pyrrolo[2,3-d]pyrimidin-7-yl]-3-methylpyrrolidin-1-yl}-2,2-dimethyl-3-oxopropanoic acid]",2266
9,"CC(C(=O)O)C(=O)N1CC[C@](C)(N2CCc3c(-c4cnc(N)nc4)nc(N4CCOCC4)nc32)C1 (stereo partly drawn) [Example 320, 3-{(3S)-3-[4-(2-aminopyrimidin-5-yl)-2-(morpholin-4-yl)-5,6-dihydro-7H-pyrrolo[2,3-d]pyrimidin-7-yl]-3-methylpyrrolidin-1-yl}-2-methyl-3-oxopropanoic acid]",318
10,"CCOC(=O)C(C)C(=O)N1CC[C@](C)(N2CCc3c(-c4cnc(N)nc4)nc(N4CCOCC4)nc32)C1 (stereo partly drawn) [Example 321, ethyl 3-{(3S)-3-[4-(2-aminopyrimidin-5-yl)-2-(morpholin-4-yl)-5,6-dihydro-7H-pyrrolo[2,3-d]pyrimidin-7-yl]-3-methylpyrrolidin-1-yl}-2-methyl-3-oxopropanoate]",42
11,"CCOC(=O)C(C)(C)C(=O)N1CC[C@](C)(N2CCc3c(-c4cnc(N)nc4)nc(N4CCOCC4)nc32)C1 [Example 322, ethyl 3-{(3S)-3-[4-(2-aminopyrimidin-5-yl)-2-(morpholin-4-yl)-5,6-dihydro-7H-pyrrolo[2,3-d]pyrimidin-7-yl]-3-methylpyrrolidin-1-yl}-2,2-dimethyl-3-oxopropanoate]",<18
12,"C[C@]1(N2CCc3c(-c4cnc(N)nc4)nc(N4CCOCC4)nc32)CCN(C(=O)CC2CC2)C1 [Example 323, 1-{(3S)-3-[4-(2-aminopyrimidin-5-yl)-2-(morpholin-4-yl)-5,6-dihydro-7H-pyrrolo[2,3-d]pyrimidin-7-yl]-3-methylpyrrolidin-1-yl}-2-cyclopropylethanone]",<18
13,"C[C@@]1(N2CCc3c(-c4cnc(N)nc4)nc(N4CCOCC4)nc32)CCN(C(=O)CC2CC2)C1 [Example 324, 1-{(3R)-3-[4-(2-aminopyrimidin-5-yl)-2-(morpholin-4-yl)-5,6-dihydro-7H-pyrrolo[2,3-d]pyrimidin-7-yl]-3-methylpyrrolidin-1-yl}-2-cyclopropylethanone]",198
14,"C[C@]1(N2CCc3c(-c4cnc(N)nc4)nc(N4CCOCC4)nc32)CCN(C(=O)CN2CCC2)C1 [Example 325, 1-{(3S)-3-[4-(2-aminopyrimidin-5-yl)-2-(morpholin-4-yl)-5,6-dihydro-7H-pyrrolo[2,3-d]pyrimidin-7-yl]-3-methylpyrrolidin-1-yl}-2-(azetidin-1-yl)ethanone]",58
15,"C[C@]1(N2CCc3c(-c4cnc(N)nc4)nc(N4CCOCC4)nc32)CCN(C(=O)C2CC2)C1 [Example 328, {(3S)-3-[4-(2-aminopyrimidin-5-yl)-2-(morpholin-4-yl)-5,6-dihydro-7H-pyrrolo[2,3-d]pyrimidin-7-yl]-3-methylpyrrolidin-1-yl}(cyclopropyl) methanone]",24
16,"CC1(C(=O)N2CC[C@](C)(N3CCc4c(-c5cnc(N)nc5)nc(N5CCOCC5)nc43)C2)CC1 [Example 329, {(3S)-3-[4-(2-aminopyrimidin-5-yl)-2-(morpholin-4-yl)-5,6-dihydro-7H-pyrrolo[2,3-d]pyrimidin-7-yl]-3-methylpyrrolidin-1-yl}(1-methylcyclopropyl) methanone]",<18
17,"CC1(C(=O)N2CC[C@@](C)(N3CCc4c(-c5cnc(N)nc5)nc(N5CCOCC5)nc43)C2)CC1 [Example 330, {(3R)-3-[4-(2-aminopyrimidin-5-yl)-2-(morpholin-4-yl)-5,6-dihydro-7H-pyrrolo[2,3-d]pyrimidin-7-yl]-3-methylpyrrolidin-1-yl}(1-methylcyclopropyl) methanone]",152
18,"C[C@]1(N2CCc3c(-c4cnc(N)nc4)nc(N4CCOCC4)nc32)CCN(C(=O)[C@H]2C[C@@H]2F)C1 [Example 332, {(3S)-3-[4-(2-aminopyrimidin-5-yl)-2-(morpholin-4-yl)-5,6-dihydro-7H-pyrrolo[2,3-d]pyrimidin-7-yl]-3-methylpyrrolidin-1-yl}[(1R,2S)-2-fluorocyclopropyl] methanone]",<18
19,"C[C@]1(N2CCc3c(-c4cnc(N)nc4)nc(N4CCOCC4)nc32)CCN(C(=O)[C@@H]2C[C@H]2F)C1 [Example 333, {(3S)-3-[4-(2-aminopyrimidin-5-yl)-2-(morpholin-4-yl)-5,6-dihydro-7H-pyrrolo[2,3-d]pyrimidin-7-yl]-3-methylpyrrolidin-1-yl}[(1S,2R)-2-fluorocyclopropyl] methanone]",<18
20,"C[C@]1(N2CCc3c(-c4cnc(N)nc4)nc(N4CCOCC4)nc32)CCN(C(=O)[C@@H]2C[C@@H]2F)C1 [Example 334, {(3S)-3-[4-(2-aminopyrimidin-5-yl)-2-(morpholin-4-yl)-5,6-dihydro-7H-pyrrolo[2,3-d]pyrimidin-7-yl]-3-methylpyrrolidin-1-yl}[(1S,2S)-2-fluorocyclopropyl] methanone]",21
21,"C[C@]1(N2CCc3c(-c4cnc(N)nc4)nc(N4CCOCC4)nc32)CCN(C(=O)[C@H]2C[C@H]2F)C1 [Example 335, {(3S)-3-[4-(2-aminopyrimidin-5-yl)-2-(morpholin-4-yl)-5,6-dihydro-7H-pyrrolo[2,3-d]pyrimidin-7-yl]-3-methylpyrrolidin-1-yl}[(1R,2R)-2-fluorocyclopropyl] methanone]",<18
22,"C[C@]1(N2CCc3c(-c4cnc(N)nc4)nc(N4CCOCC4)nc32)CCN(C(=O)[C@H]2CC2(F)F)C1 [Example 336, {(3S)-3-[4-(2-aminopyrimidin-5-yl)-2-(morpholin-4-yl)-5,6-dihydro-7H-pyrrolo[2,3-d]pyrimidin-7-yl]-3-methylpyrrolidin-1-yl}[(1R)-2,2-difluorocyclopropyl] methanone]",54
23,"C[C@]1(N2CCc3c(-c4cnc(N)nc4)nc(N4CCOCC4)nc32)CCN(C(=O)[C@@H]2CC2(F)F)C1 [Example 337, {(3S)-3-[4-(2-aminopyrimidin-5-yl)-2-(morpholin-4-yl)-5,6-dihydro-7H-pyrrolo[2,3-d]pyrimidin-7-yl]-3-methylpyrrolidin-1-yl}[(1S)-2,2-difluorocyclopropyl] methanone]",<18
